Experimental data published in US20090149455A1, “Use of Triazolopyrimidines for Controlling Plant Diseases on Legumes” (Bayer CropScience AG, priority 2005, published 2009).

Assay: log p
Type: physicochemical

Row | SMILES | log p
1 | CC(Nc1c(-c2c(F)cc(F)cc2F)c(Cl)nc2ncnn12)C(F)(F)F (stereo not drawn) [Example 1] | 2.87
2 | CC(Nc1c(-c2c(F)cc(F)cc2F)c(Cl)nc2ncnn12)C(C)(C)C (stereo not drawn) [Example 2] | 3.54
3 | CC(C)C(C)Nc1c(-c2c(F)cc(F)cc2F)c(Cl)nc2ncnn12 (stereo not drawn) [Example 3] | 3.2
4 | CCC(C)Nc1c(-c2ccccc2F)c(Cl)nc2ncnn12 (stereo not drawn) [Example 4] | 2.73
5 | CCC(C)Nc1c(-c2c(F)cccc2F)c(Cl)nc2ncnn12 (stereo not drawn) [Example 5] | 2.71
6 | CCC(C)Nc1c(-c2ccc(F)cc2F)c(Cl)nc2ncnn12 (stereo not drawn) [Example 6] | 2.85
7 | CCC(C)Nc1c(-c2ccccc2)c(Cl)nc2ncnn12 (stereo not drawn) [Example 7] | 2.78
8 | CCC(C)Nc1c(-c2ccc(Cl)cc2Cl)c(Cl)nc2ncnn12 (stereo not drawn) [Example 8] | 3.54
9 | CCC(C)Nc1c(-c2ccccc2Cl)c(Cl)nc2ncnn12 (stereo not drawn) [Example 9] | 2.94
10 | CC(C)(C)CC(C)(C)Nc1c(-c2c(F)cc(F)cc2F)c(Cl)nc2ncnn12 [Example 10] | 4.32
11 | CCC(C)CNc1c(-c2c(F)cc(F)cc2F)c(Cl)nc2ncnn12 (stereo not drawn) [Example 11] | 3.26
12 | FCCCNc1c(-c2c(F)cc(F)cc2F)c(Cl)nc2ncnn12 [Example 12] | 2.3
13 | C=CCN(CC)c1c(-c2c(F)cc(C(F)(F)F)cc2Cl)c(Cl)nc2ncnn12 [Example 13] | 4.06
14 | C=CCN(C)c1c(-c2ccc(F)cc2F)c(Cl)nc2ncnn12 [Example 14] | 2.89
15 | C=CCN(CC)c1c(-c2ccc(F)cc2F)c(Cl)nc2ncnn12 [Example 15] | 3.19
16 | CC(C)(Nc1c(-c2c(F)c(F)c(F)c(F)c2F)c(Cl)nc2ncnn12)C(F)(F)F [Example 17] | 3.75
17 | CCN(CC)c1c(-c2ccccc2F)c(Cl)nc2ncnn12 [Example 18] | 2.82
18 | CCNc1c(-c2c(F)cc(C(F)(F)F)cc2Cl)c(Cl)nc2ncnn12 [Example 21] | 3.1
19 | CCN(CC)c1c(-c2c(F)c(F)c(F)c(F)c2F)c(Cl)nc2ncnn12 [Example 22] | 3.44
20 | CCNc1c(-c2ccccc2F)c(Cl)nc2ncnn12 [Example 23] | 2.13
21 | CCNc1c(-c2c(F)cccc2F)c(Cl)nc2ncnn12 [Example 24] | 2.14
22 | CCNc1c(-c2c(F)c(F)c(F)c(F)c2F)c(Cl)nc2ncnn12 [Example 25] | 2.72

Row | SMILES | log p
23 | CCN(CC)c1c(-c2c(F)cc(F)cc2F)c(Cl)nc2ncnn12 [Example 26] | 3.05
24 | CC(Nc1c(-c2c(F)cc(F)cc2F)c(Cl)nc2ncnn12)C(F)(F)F (stereo not drawn) [Example 29] | 2.88
25 | CC(Nc1c(-c2c(F)cccc2Cl)c(Cl)nc2ncnn12)C(F)(F)F (stereo not drawn) [Example 30] | 2.85
26 | Cc1cc(C)c(-c2c(Cl)nc3ncnn3c2NC(C)C(F)(F)F)c(C)c1 (stereo not drawn) [Example 35] | 3.55
27 | C[C@H](Nc1c(-c2c(Cl)cc(C(F)(F)F)cc2Cl)c(Cl)nc2ncnn12)C(F)(F)F [Example 36] | 3.79
28 | C[C@H](Nc1c(-c2c(Cl)cc(OC(F)(F)F)cc2Cl)c(Cl)nc2ncnn12)C(F)(F)F [Example 37] | 3.89
29 | CSc1cc(F)cc(F)c1-c1c(Cl)nc2ncnn2c1N[C@@H](C)C(F)(F)F [Example 38] | 3.17
30 | C[C@H](Nc1c(-c2cc(C(F)(F)F)ccc2C(F)(F)F)c(Cl)nc2ncnn12)C(F)(F)F [Example 39] | 3.51
31 | C[C@H](Nc1c(-c2cc(C(F)(F)F)ccc2Cl)c(Cl)nc2ncnn12)C(F)(F)F [Example 40] | 3.4
32 | C[C@H](Nc1c(-c2c(F)cc(C(F)(F)F)c(F)c2F)c(Cl)nc2ncnn12)C(F)(F)F [Example 41] | 3.6
33 | C[C@H](Nc1c(-c2ccc(C(F)(F)F)c(F)c2F)c(Cl)nc2ncnn12)C(F)(F)F [Example 42] | 3.52
34 | CC(Nc1c(-c2ccc(F)c(Cl)c2)c(Cl)nc2ncnn12)C(F)(F)F (stereo not drawn) [Example 43] | 3.18
35 | C[C@H](Nc1c(-c2c(Cl)c(F)cc(C(F)(F)F)c2Cl)c(Cl)nc2ncnn12)C(F)(F)F [Example 44] | 3.74
36 | C[C@H](Nc1c(-c2ccc(C(F)(F)F)cc2F)c(Cl)nc2ncnn12)C(F)(F)F [Example 45] | 3.33
37 | CC(Nc1c(-c2ccc(F)cc2Cl)c(Cl)nc2ncnn12)C(F)(F)F (stereo not drawn) [Example 46] | 3.04
38 | CC(Nc1c(-c2c(F)cccc2F)c(Cl)nc2ncnn12)C(F)(F)F (stereo not drawn) [Example 47] | 2.64
39 | CC(Nc1c(-c2c(F)c(F)c(F)c(F)c2F)c(Cl)nc2ncnn12)C(F)(F)F (stereo not drawn) [Example 48] | 3.3
40 | CC(Nc1c(-c2ccccc2F)c(Cl)nc2ncnn12)C(F)(F)F (stereo not drawn) [Example 49] | 2.69
41 | C[C@H](Nc1c(-c2cc(SC(F)(F)F)ccc2Cl)c(Cl)nc2ncnn12)C(F)(F)F [Example 50] | 3.78
42 | C[C@H](Nc1c(-c2cccc(C(F)(F)F)c2Cl)c(Cl)nc2ncnn12)C(F)(F)F [Example 51] | 3.36
43 | C[C@H](Nc1c(-c2ccc(F)cc2F)c(Cl)nc2ncnn12)C(F)(F)F [Example 52] | 2.81
44 | C[C@H](Nc1c(-c2c(Cl)cccc2Cl)c(Cl)nc2ncnn12)C(F)(F)F [Example 53] | 3.02

Row | SMILES | log p
45 | C[C@H](Nc1c(-c2c(F)cc(F)cc2C(F)(F)F)c(Cl)nc2ncnn12)C(F)(F)F [Example 54] | 3.16
46 | C[C@H](Nc1c(-c2cccc3c2OC(F)(F)O3)c(Cl)nc2ncnn12)C(F)(F)F [Example 55] | 3.16
47 | CC(Nc1c(-c2c(F)cc(C(F)(F)F)cc2F)c(Cl)nc2ncnn12)C(F)(F)F (stereo not drawn) [Example 56] | 3.09
48 | CC(Nc1c(-c2ccccc2Cl)c(Cl)nc2ncnn12)C(F)(F)F (stereo not drawn) [Example 57] | 2.88
49 | C[C@H](Nc1c(-c2ccccc2Cl)c(Cl)nc2ncnn12)C(F)(F)F [Example 58] | 2.87
50 | C[C@H](Nc1c(-c2ccc(F)cc2C(F)(F)F)c(Cl)nc2ncnn12)C(F)(F)F [Example 59] | 3.07
51 | C[C@@H](Nc1c(-c2c(F)cc(F)cc2F)c(Cl)nc2ncnn12)C(F)(F)F [Example 60] | 2.84
52 | C[C@@H](Nc1c(-c2ccc(F)cc2Cl)c(Cl)nc2ncnn12)C(F)(F)F [Example 61] | 3
53 | C[C@H](Nc1c(-c2cc(F)ccc2F)c(Cl)nc2ncnn12)C(F)(F)F [Example 62] | 2.74
54 | CC(Nc1c(-c2c(Cl)cc(OC(F)(F)F)cc2Cl)c(Br)nc2ncnn12)C(F)(F)F (stereo not drawn) [Example 65] | 3.92
55 | CC(Nc1c(-c2c(F)cc(F)cc2F)c(Br)nc2ncnn12)C(F)(F)F (stereo not drawn) [Example 66] | 2.9
56 | CC(Nc1c(-c2c(F)cc(F)cc2F)c(Cl)nc2ncnn12)C(C)(C)C (stereo not drawn) [Example 67] | 3.53
57 | C[C@H](Nc1c(-c2c(F)cc(F)cc2F)c(Cl)nc2ncnn12)C(C)(C)C [Example 68] | 3.54
58 | CC(Nc1c(-c2c(F)cccc2Cl)c(Cl)nc2ncnn12)C(C)(C)C (stereo not drawn) [Example 69] | 3.58
59 | C[C@@H](Nc1c(-c2c(F)cccc2Cl)c(Cl)nc2ncnn12)C(C)(C)C [Example 70] | 3.58
60 | C[C@H](Nc1c(-c2c(F)cccc2Cl)c(Cl)nc2ncnn12)C(C)(C)C [Example 71] | 3.63
61 | C[C@@H](Nc1c(-c2cc(F)ccc2F)c(Cl)nc2ncnn12)C(C)(C)C [Example 72] | 3.38
62 | CC(C)C(C)Nc1c(-c2c(F)cc(F)cc2F)c(Cl)nc2ncnn12 (stereo not drawn) [Example 73] | 3.2
63 | CC(C)C(C)Nc1c(-c2ccccc2)c(Cl)nc2ncnn12 (stereo not drawn) [Example 74] | 3.14
64 | CC(C)[C@H](C)Nc1c(-c2c(F)cc(F)cc2F)c(Cl)nc2ncnn12 [Example 77] | 3.17
65 | CC(C)[C@@H](C)Nc1c(-c2cc(F)ccc2F)c(Cl)nc2ncnn12 [Example 78] | 3.05
66 | Cc1nc2ncnn2c(N[C@H](C)C(C)C)c1-c1c(F)cccc1Cl [Example 79] | 2.7

Row | SMILES | log p
67 | CC(C)CC(C)Nc1c(-c2c(F)cc(F)cc2F)c(Cl)nc2ncnn12 (stereo not drawn) [Example 80] | 3.59
68 | CC(C)CC(C)Nc1c(-c2ccc(F)cc2F)c(Cl)nc2ncnn12 (stereo not drawn) [Example 81] | 3.53
69 | CNc1c(-c2c(F)cccc2F)c(Cl)nc2ncnn12 [Example 82] | 1.84
70 | CNc1c(-c2c(F)cc(F)cc2F)c(Cl)nc2ncnn12 [Example 83] | 2.01
71 | CNc1c(-c2c(F)c(F)c(F)c(F)c2F)c(Cl)nc2ncnn12 [Example 84] | 2.41
72 | CN(C)c1c(-c2ccccc2F)c(Cl)nc2ncnn12 [Example 85] | 2.18
73 | CNc1c(-c2ccccc2F)c(Cl)nc2ncnn12 [Example 86] | 1.86
74 | CN(C)c1c(-c2c(F)cccc2F)c(Cl)nc2ncnn12 [Example 87] | 2.19
75 | C=C(C)CN(CC)c1c(-c2c(F)cc(F)cc2F)c(Cl)nc2ncnn12 [Example 90] | 3.6
76 | C=C(C)CNc1c(-c2ccccc2F)c(Cl)nc2ncnn12 [Example 91] | 2.48
77 | C=C(C)CN(CC)c1c(-c2ccc(F)cc2F)c(Cl)nc2ncnn12 [Example 93] | 3.54
78 | C=C(C)CNc1c(-c2c(F)cc(F)cc2F)c(Cl)nc2ncnn12 [Example 94] | 2.63
79 | C=C(C)CN(CC)c1c(-c2c(F)cccc2F)c(Cl)nc2ncnn12 [Example 95] | 3.42
80 | C=C(C)CN(C)c1c(-c2c(F)cc(C(F)(F)F)cc2Cl)c(Cl)nc2ncnn12 [Example 96] | 4.05
81 | C=C(C)CNc1c(-c2ccc(F)cc2F)c(Cl)nc2ncnn12 [Example 97] | 2.6
82 | C=C(C)CN(C)c1c(-c2ccc(F)cc2F)c(Cl)nc2ncnn12 [Example 98] | 3.21
83 | C=C(C)CN(CC)c1c(-c2c(Cl)cccc2Cl)c(Cl)nc2ncnn12 [Example 99] | 3.92
84 | C=C(C)CN(CC)c1c(-c2cc(C(F)(F)F)ccc2Cl)c(Cl)nc2ncnn12 [Example 100] | 4.12
85 | C=C(C)CN(CC)c1c(-c2cccc3c2OC(F)(F)O3)c(Cl)nc2ncnn12 [Example 101] | 3.9
86 | C=C(C)CN(CC)c1c(-c2cccc(C(F)(F)F)c2Cl)c(Cl)nc2ncnn12 [Example 102] | 4.12
87 | C=C(C)CNc1c(-c2c(F)c(F)c(F)c(F)c2F)c(Cl)nc2ncnn12 [Example 104] | 3.09
